Columns and labels:
Format in all cases: cell-based
MCF7 cells = assay: Anti-proliferation (viability) of MCF7 cells (Table 7, FIG. 2B); conditions: Homo sapiens, MCF7, MCF7 cells, 3-6 days, 10-point serial dilution; read-out: GI IC50 in MCF-7
CDK4 [1] = biological target: T1, CDK4 (Homo sapiens, UniProt P11802+Q16531); assay: CDK4 percentage degradation in Calu-1 cells (Table 6); design: Cells that express cyclin D1-3 and CDK4/6 proteins were treated with heterobifunctional compounds; endogenous in cells; host or cells: Calu-1; conditions: 16 hours; for inhibition at 0.04 µM: 40 nM; for inhibition at 0.2 µM: 200 nM
Method in brief: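 Calu-1 cells exposed to heterobifunctional compounds at 40 nM or 200 nM for 16 h. Cyclin D1 and CDK4 levels measured by Western blot of RIPA lysates (BCA-normalised loading), bands quantified by densitometry and expressed as percentage degradation.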
Target sequence in this assay (P11802 2-303 limits assumed): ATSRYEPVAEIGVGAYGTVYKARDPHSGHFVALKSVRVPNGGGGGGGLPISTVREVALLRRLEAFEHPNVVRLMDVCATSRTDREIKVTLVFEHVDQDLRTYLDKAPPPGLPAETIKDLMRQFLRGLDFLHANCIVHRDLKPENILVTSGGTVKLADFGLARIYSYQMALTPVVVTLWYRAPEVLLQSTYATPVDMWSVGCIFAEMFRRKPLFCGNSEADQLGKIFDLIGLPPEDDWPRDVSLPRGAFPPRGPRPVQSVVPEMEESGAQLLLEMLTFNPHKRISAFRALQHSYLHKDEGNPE
Target sequence in this assay (P24385 whole entry partner): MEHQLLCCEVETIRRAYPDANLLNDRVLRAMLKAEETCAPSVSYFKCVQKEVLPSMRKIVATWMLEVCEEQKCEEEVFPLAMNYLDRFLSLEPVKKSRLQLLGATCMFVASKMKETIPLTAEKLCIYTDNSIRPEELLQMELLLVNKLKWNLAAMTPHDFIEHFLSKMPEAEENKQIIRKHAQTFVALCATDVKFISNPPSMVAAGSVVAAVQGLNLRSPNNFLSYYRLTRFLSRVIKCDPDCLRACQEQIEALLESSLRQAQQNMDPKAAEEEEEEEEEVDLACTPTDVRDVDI
Target sequence in this assay (Q16531 2-1140 limits assumed): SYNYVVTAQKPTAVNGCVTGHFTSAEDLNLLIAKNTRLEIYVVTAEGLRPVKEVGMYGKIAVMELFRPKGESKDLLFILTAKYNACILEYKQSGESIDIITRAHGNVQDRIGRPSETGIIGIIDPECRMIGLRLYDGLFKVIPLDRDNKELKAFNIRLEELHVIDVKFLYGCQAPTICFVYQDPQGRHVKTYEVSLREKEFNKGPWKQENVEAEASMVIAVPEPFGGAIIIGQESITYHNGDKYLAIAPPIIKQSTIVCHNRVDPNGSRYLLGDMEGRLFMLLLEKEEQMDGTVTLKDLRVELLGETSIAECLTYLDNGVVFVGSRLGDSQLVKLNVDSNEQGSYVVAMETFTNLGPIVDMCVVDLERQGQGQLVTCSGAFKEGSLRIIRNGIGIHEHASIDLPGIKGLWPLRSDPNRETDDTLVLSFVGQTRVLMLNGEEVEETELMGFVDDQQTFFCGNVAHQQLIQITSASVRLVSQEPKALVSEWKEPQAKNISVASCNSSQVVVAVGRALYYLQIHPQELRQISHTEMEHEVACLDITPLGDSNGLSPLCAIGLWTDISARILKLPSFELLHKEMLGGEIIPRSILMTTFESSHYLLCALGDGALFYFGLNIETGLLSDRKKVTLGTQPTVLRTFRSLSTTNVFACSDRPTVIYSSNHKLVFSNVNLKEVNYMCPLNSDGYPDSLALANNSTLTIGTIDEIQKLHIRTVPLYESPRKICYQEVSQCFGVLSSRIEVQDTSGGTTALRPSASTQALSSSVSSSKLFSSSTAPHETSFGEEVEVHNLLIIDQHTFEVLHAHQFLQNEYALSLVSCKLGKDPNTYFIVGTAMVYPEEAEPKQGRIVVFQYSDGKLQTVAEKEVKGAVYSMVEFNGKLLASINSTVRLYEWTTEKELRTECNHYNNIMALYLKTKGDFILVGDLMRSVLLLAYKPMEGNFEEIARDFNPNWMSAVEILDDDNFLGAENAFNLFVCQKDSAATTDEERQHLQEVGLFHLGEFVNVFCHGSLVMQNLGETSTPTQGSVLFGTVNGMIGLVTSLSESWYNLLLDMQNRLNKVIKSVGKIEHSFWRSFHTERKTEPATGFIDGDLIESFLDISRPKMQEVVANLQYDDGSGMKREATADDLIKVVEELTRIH

CDK4 [2] = biological target: T1, CDK4; assay: HiBiT detection of HiBiT-tagged CDK4 protein level in MCF7 cells, 16 hours (Table 8); design: expressed in transfected cells; host or cells: MCF7; conditions: MCF7 cells stably expressing HiBiT tagged target proteins; for activity at 0.01 µM: 10 nM, read-out: % CDK4 Relative Level (10 nM); for activity at 0.1 µM: 100 nM, read-out: % CDK4 Relative Level (100 nM)
Method: HiBiT detection system quantitatively measures total amounts of HiBiT-tagged proteins using a luminescent based method. MCF7 cells stably expressing HiBiT tagged target proteins were treated with heterobifunctional compounds at indicated concentrations for 16 hours, then lysed with Nano-Glo HiBiT Lytic detection reagents.
Target sequence in this assay (P11802 whole entry): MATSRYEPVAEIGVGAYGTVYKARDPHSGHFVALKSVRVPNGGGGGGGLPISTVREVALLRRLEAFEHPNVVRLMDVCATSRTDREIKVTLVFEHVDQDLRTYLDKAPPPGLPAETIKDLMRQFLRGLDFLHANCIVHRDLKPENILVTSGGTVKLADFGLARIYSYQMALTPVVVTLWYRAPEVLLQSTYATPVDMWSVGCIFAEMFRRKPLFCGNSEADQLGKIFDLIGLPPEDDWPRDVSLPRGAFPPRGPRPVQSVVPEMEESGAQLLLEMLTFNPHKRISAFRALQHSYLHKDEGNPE
Target sequence in this assay (P24385 whole entry partner): as the sequence (P24385 whole entry partner) above
Target sequence in this assay (Q16531 2-1140 limits assumed): as the sequence (Q16531 2-1140 limits assumed) above

Structure (SMILES)	IC50 (MCF7 cells) [nM]	inhibition at 0.04 µM (CDK4 [1]) [%]	inhibition at 0.2 µM (CDK4 [1]) [%]	activity at 0.01 µM (CDK4 [2]) [%]	activity at 0.1 µM (CDK4 [2]) [%]
CC(=O)c1c(C)c2cnc(Nc3ccc(N4CCN(CCC(=O)N5CCC(Nc6nc(NC(C)C)ccc6C(=O)Nc6ccc(N(C)C)nn6)CC5)CC4)cn3)nc2n(C2CCCC2)c1=O [CPD-301, 2-((1-(3-(4-(6-((6-acetyl-8-cyclopentyl-5-methyl-7-oxo-7,8-dihydropyrido[2,3-d]pyrimidin-2-yl)amino)pyridin-3-yl)piperazin-1-yl)propanoyl)piperidin-4-yl)amino)-N-(6-(dimethylamino)pyridazin-3-yl)-6-(isopropylamino)nicotinamide]	< 50	< 30	< 30	55 to 85	55 to 85
CC(=O)c1c(C)c2cnc(Nc3ccc(N4CCN(CCC(=O)N5CC6(CC(Nc7nc(NC(C)C)ccc7C(=O)Nc7cc(C)n(C)n7)C6)C5)CC4)cn3)nc2n(C2CCCC2)c1=O [CPD-302, 2-((2-(3-(4-(6-((6-acetyl-8-cyclopentyl-5-methyl-7-oxo-7,8-dihydropyrido[2,3-d]pyrimidin-2-yl)amino)pyridin-3-yl)piperazin-1-yl)propanoyl)-2-azaspiro[3.3]heptan-6-yl)amino)-N-(1,5-dimethyl-1H-pyrazol-3-yl)-6-(isopropylamino)nicotinamide]	< 50	< 30	< 30	55 to 85	55 to 85
CC(=O)c1c(C)c2cnc(Nc3ccc(N4CCN(CCC(=O)N5CC6(CC(Nc7nc(NC(C)C)ccc7C(=O)Nc7ccc(N(C)C)nn7)C6)C5)CC4)cn3)nc2n(C2CCCC2)c1=O [CPD-305, 2-((2-(3-(4-(6-((6-acetyl-8-cyclopentyl-5-methyl-7-oxo-7,8-dihydropyrido[2,3-d]pyrimidin-2-yl)amino)pyridin-3-yl)piperazin-1-yl)propanoyl)-2-azaspiro[3.3]heptan-6-yl)amino)-N-(6-(dimethylamino)pyridazin-3-yl)-6-(isopropylamino)nicotinamide]	< 50	30 to 50	30 to 50	55 to 85	55 to 85
CNc1ccc(C(=O)Nc2ccc(N(C)C)nn2)c(NCCCCC(=O)N2CCN(c3ccc(Nc4ncc5cc6n(c5n4)C4(CCCCC4)CNC6=O)nc3)CC2)n1 [CPD-634, N-(6-(dimethylamino)pyridazin-3-yl)-6-(methylamino)-2-((5-oxo-5-(4-(6-((6′-oxo-7′,8′-dihydro-6′H-spiro[cyclohexane-1,9′-pyrazino[1′,2′:1,5]pyrrolo[2,3-d]pyrimidin]-2′-yl)amino)pyridin-3-yl)piperazin-1-yl)pentyl)amino)nicotinamide]	> 100			55 to 85	55 to 85
CNc1ccc(C(=O)Nc2ccc(N(C)C)nn2)c(NCCCCCC(=O)N2CCN(c3ccc(Nc4ncc5cc6n(c5n4)C4(CCCCC4)CNC6=O)nc3)CC2)n1 [CPD-635, N-(6-(dimethylamino)pyridazin-3-yl)-6-(methylamino)-2-((6-oxo-6-(4-(6-((6′-oxo-7′,8′-dihydro-6′H-spiro[cyclohexane-1,9′-pyrazino[1′,2′:1,5]pyrrolo[2,3-d]pyrimidin]-2′-yl)amino)pyridin-3-yl)piperazin-1-yl)hexyl)amino)nicotinamide]	> 100			55 to 85	55 to 85
CNc1ccc(C(=O)Nc2ccc(N(C)C)nn2)c(NCCCCCCC(=O)N2CCN(c3ccc(Nc4ncc5cc6n(c5n4)C4(CCCCC4)CNC6=O)nc3)CC2)n1 [CPD-636, N-(6-(dimethylamino)pyridazin-3-yl)-6-(methylamino)-2-((7-oxo-7-(4-(6-((6′-oxo-7′,8′-dihydro-6′H-spiro[cyclohexane-1,9′-pyrazino[1′,2′:1,5]pyrrolo[2,3-d]pyrimidin]-2′-yl)amino)pyridin-3-yl)piperazin-1-yl)heptyl)amino)nicotinamide]	> 100			55 to 85	55 to 85
CNc1ccc(C(=O)Nc2ccc(N(C)C)nn2)c(NCCOCCOCCC(=O)N2CCN(c3ccc(Nc4ncc5cc6n(c5n4)C4(CCCCC4)CNC6=O)nc3)CC2)n1 [CPD-639, N-(6-(dimethylamino)pyridazin-3-yl)-6-(methylamino)-2-((2-(2-(3-oxo-3-(4-(6-((6′-oxo-7′,8′-dihydro-6′H-spiro[cyclohexane-1,9′-pyrazino[1′,2′:1,5]pyrrolo[2,3-d]pyrimidin]-2′-yl)amino)pyridin-3-yl)piperazin-1-yl)propoxy)ethoxy)ethyl)amino)nicotinamide]	> 100			> 85	> 85
CNc1ccc(C(=O)Nc2ccc(N(C)C)nn2)c(NCCCCNC(=O)CN2CCN(c3ccc(Nc4ncc5cc6n(c5n4)C4(CCCCC4)CNC6=O)nc3)CC2)n1 [CPD-642, N-(6-(dimethylamino)pyridazin-3-yl)-6-(methylamino)-2-((4-(2-(4-(6-((6′-oxo-7′,8′-dihydro-6′H-spiro[cyclohexane-1,9′-pyrazino[1′,2′:1,5]pyrrolo[2,3-d]pyrimidin]-2′-yl)amino)pyridin-3-yl)piperazin-1-yl)acetamido)butyl)amino)nicotinamide]	> 100			55 to 85	55 to 85
CNc1ccc(C(=O)Nc2ccc(N(C)C)nn2)c(NCCCCCNC(=O)CN2CCN(c3ccc(Nc4ncc5cc6n(c5n4)C4(CCCCC4)CNC6=O)nc3)CC2)n1 [CPD-643]	> 100			> 85	55 to 85
CNc1ccc(C(=O)Nc2ccc(N(C)C)nn2)c(NCCCCCCNC(=O)CN2CCN(c3ccc(Nc4ncc5cc6n(c5n4)C4(CCCCC4)CNC6=O)nc3)CC2)n1 [CPD-644, N-(6-(dimethylamino)pyridazin-3-yl)-6-(methylamino)-2-((6-(2-(4-(6-((6′-oxo-7′,8′-dihydro-6′H-spiro[cyclohexane-1,9′-pyrazino[1′,2′:1,5]pyrrolo[2,3-d]pyrimidin]-2′-yl)amino)pyridin-3-yl)piperazin-1-yl)acetamido)hexyl)amino)nicotinamide]	> 100			> 85	> 85
CNc1ccc(C(=O)Nc2ccc(N(C)C)nn2)c(NCCCCCCCNC(=O)CN2CCN(c3ccc(Nc4ncc5cc6n(c5n4)C4(CCCCC4)CNC6=O)nc3)CC2)n1 [CPD-645, N-(6-(dimethylamino)pyridazin-3-yl)-6-(methylamino)-2-((7-(2-(4-(6-((6′-oxo-7′,8′-dihydro-6′H-spiro[cyclohexane-1,9′-pyrazino[1′,2′:1,5]pyrrolo[2,3-d]pyrimidin]-2′-yl)amino)pyridin-3-yl)piperazin-1-yl)acetamido)heptyl)amino)nicotinamide]	> 100			> 85	> 85
CNc1ccc(C(=O)Nc2ccc(N(C)C)nn2)c(NCCCCCCCCNC(=O)CN2CCN(c3ccc(Nc4ncc5cc6n(c5n4)C4(CCCCC4)CNC6=O)nc3)CC2)n1 [CPD-646, N-(6-(dimethylamino)pyridazin-3-yl)-6-(methylamino)-2-((8-(2-(4-(6-((6′-oxo-7′,8′-dihydro-6′H-spiro[cyclohexane-1,9′-pyrazino[1′,2′:1,5]pyrrolo[2,3-d]pyrimidin]-2′-yl)amino)pyridin-3-yl)piperazin-1-yl)acetamido)octyl)amino)nicotinamide]	> 100			> 85	> 85
